Measured values reported in patent US20040235955A1, “Remedies for pruritus” (priority 2001, published 2004).

Tests used:
[1] = tested on: pruritus induced by serotonin and PGE2; assay: inhibitory effect against pruritus induced by serotonin and PGE2 (scratching count); assay type: in vivo; details: male ICR mice, scratching counted for 30 minutes, vs control
Protocol: The inhibitory effect against pruritus induced by serotonin and PGE2.
The back of male ICR mice (Charles River Japan Inc., 5 week-old) were sheared by hair clipper. 0.5% MC or the above test compound (100 mg/5 ml/kg or 300 mg/5 ml/kg) was administered orally. After 15 minutes or 1hour, serotonin (3 μg) or mixed solution of serotonin (3 μg) and PGE2 (1nmol) was injected intradermally (20 μl) into the. back of mouse. Scratching of the injected site or the perimeter by the behind paws of mouse was characterized as itch. The scratching was counted for 30 minutes from the injection.
0.5% MC [administration at 15 minutes before the induction]/serotonin (n=10) 0.5% MC [administration at 15 minutes before the induction]/serotonin+PGE2 (n=10) compound (1) [administration at 15 minutes before the induction]/serotonin+PGE2 (n=10) compound (2) [administration at 15 minutes before the
0.5% MC [administration at 1hour before the induction]/serotonin (n=10) 0.5% MC [administration at 1hour before the induction]/serotonin+PGE2 (n=10) compound (3) [administration at 1hour before the induction]/serotonin+PGE2 (n=10)

[2] = tested on: model of allergic dermatitis; assay: inhibitory effect against pruritus in a model of allergic dermatitis (DNFB hapten, scratching count); assay type: in vivo; details: male BALB/c mice; 0.15% DNFB weekly; 100 mg/5 ml/kg orally; scratching from 3 to 5 hours and from 24 to 26 hours after fifth application of hapten; vs control; FIG. 3
Protocol: The inhibitory effect against pruritus in a model of allergic dermatitis. The back of male BALB/c mice (Charles River Japan Inc., 6 week-old) were sheared by hair clipper. 0.15% dinitrofluorobenzene (DNFB) dissolved in mixed solution of acetone and olive oil as hapten was administered 50 μl by micro pipette in the back once a week. After forth applications, the scratching was measured from 3 to 5 hours and from 24 to 26 hours and mice were divided to each group referring the scratch data. 0.5% MC or the test compound (100 mg/5 ml/kg) was administered orally forth every 30 minutes from 30 minutes before 3 and 24 hours, respectively after fifth application of hapten. The scratching was videotaped from 3 to 5 hours and from 24 to 26 hours, respectively, after fifth application of hapten. The scratching was counted and estimated.

[3] = 100 mg/5 ml/kg orally 15 minutes before intradermal serotonin (3 μg) + PGE2 (1 nmol), FIG. 1

SMILES	number of scratching in serotonin and PGE2-induced pruritus [1, 3]	other results
O=C([O-])CCc1ccc(Cn2cccn2)cc1OCCc1ccc2ccccc2c1.[Na+] [Compound (1), sodium 3-(2-(2-(naphthalen-2-yl)ethoxy)-4-(pyrazol-1-ylmethyl)phenyl)propanoate]	inhibited significantly against control	–
CC(C)CC(C(=O)Nc1cc(C#N)ccc1Cc1ccccc1C(=O)[O-])c1cccc2ccccc12.[Na+] (stereo not shown) [Compound (2), sodium 2-[4-cyano-2-[4-methyl-2-(1-naphthyl)pentanoylamino]phenylmethyl]benzoate]	inhibited significantly against control	–
COc1ccc(Br)cc1S(=O)(=O)NC(=O)/C=C/c1ccccc1Cc1ccc2ccccc2c1 [Compound (3), (2E)-N-(5-bromo-2-methoxyphenylsulfonyl)-3-(2-(naphthalen-2-ylmethyl)phenyl) -2-propenamide]	–	number of scratching in serotonin and PGE2-induced pruritus ([1]; 300 mg/5 ml/kg orally 1 hour before intradermal serotonin (3 μg) + PGE2 (1 nmol), FIG. 2): inhibited significantly against control
O=C(O)CCc1ccc(Cn2cccn2)cc1OCCc1ccc2ccccc2c1 [Compound (4), 3-(2-(2-(naphthalen-2-yl)ethoxy)-4-(pyrazol-1-ylmethyl)phenyl)propanoic acid]	–	number of scratching in allergic dermatitis model [2]: inhibited significantly against control
